Data on one substance can be found in patent US9586994B2, “CD44V6-derived peptides for treating breast cancer” (KARLSRUHER INSTITUT FÜR TECHNOLOGIE, priority 2012, dated 2017).

For experiment [1], the target named is T1, CD44v6 (Homo sapiens, UniProt P16070).
T1 construct: endogenous in cells; host or cells: MCF7; MCF10A
The experiment in a line: Peptide blocking of EGF/TGFα-induced Erk phosphorylation in MCF7 cells (Western blot). Particulars: peptide 100 ng/ml. The class given is cell-based. The method, then: 3×10^5 were seeded per well of a 6-well plate and serum-starved for 24 hours. Afterwards the medium inside of each well was reduced to 1 ml and the respective peptide (v6 (both peptides of SEQ ID No.: 2 and 6 were tested), or ctrl peptide) was added at a concentration of 100 ng/ml. The cells then were incubated together with the peptide at 37° C. for 5 mins. Ligand concentration for all peptide blocking experiments was 20 ng/ml.
To assay protein expression via Western blot cells were washed 1× with PBS and afterwards lysed in 2×Laemmli sample buffer (160 mM Tris-HCl pH 6.8, 4% SDS, 16% glycerol, 0.1M DTT, 0.01% bromphenol blue). The sample was sheared through a 26 gauge needle. In succession the lysates were boiled for 5 mins at 99° C. in order to denature the proteins in the sample and then spun down at 10 000 rmp for 1 min Eventually the samples were loaded onto an SDS-PAGE gel.
To test whether CD44v6 acts as a co-receptor in MCF7 or MCF10A cells, a peptide blocking experiment using peptides of SEQ ID NO: 6 was conducted. The cells were serum-starved for 24 h and then pre-incubated with a v6 peptide or an unspecific control peptide. Then, the cells were induced with EGF or HGF as a control. As a read-out for ErbB-activation, the phosphorylation of the Erk-kinase was used.
In general terms: In western blotting, separated proteins are transferred to a membrane and probed.

For experiment [2], the system named is CD44v6. Briefly: HGF-induced activation of Met and ERK in L3.6pl cells (Western blot). The class given is cell-based, human. Particulars: peptide before induction with 10 ng/ml HGF. The method, then: Serum-starved cells (24 hours) were induced with the growth factor HGF (10 ng/mL) at 37° C. for 5 minutes. Where indicated, the cells were treated with peptides (100 ng/ml) prior to induction at 37° C. for 10 minutes (100 ng/mL CD44v6 peptide or control peptide). Following the induction with HGF, cells were washed with ice-cold phosphate-buffered saline (PBS). To detect activated Met and ERK, cells were lysed in sodium dodecyl sulfate (SDS)—sample buffer containing 100 mM dithiothreitol (DTT), boiled and subjected to western blot analysis using antibodies against phospho-Met and ERK. The loading controls were performed on the same blot after stripping (62.5 mM Tris, pH 6.8, 2% SDS, 0.8% DTT) by probing with the Met respectively Erk antibody. Blots were stained using the enhanced chemiluminescence system (Thermo Fisher Scientific, Schwerte, Germany). Bands in western blot analysis were quantified with the program Image J (National Institutes of Health).
To expand the studies to human pancreatic tumors, the highly metastatic human pancreatic carcinoma cells L3.6pl (Bruns, et al. Neoplasia (1999), 1(1):50-62) were investigated. These cells originate from the […] cells that have been passaged several times in the liver and the pancreas, a step that rendered them more and more metastatic. It was confirmed that Met is dependent on CD44v6 for its activation and signaling in these cells (FIG. 19A). The L3.6pl cells were treated with HGF in the presence or absence of a human v6 peptide of SEQ ID NO: 2 or SEQ ID NO:6 and Met activation and downstream signaling to ERK was measured. Phosphorylation of both Met and ERK was inhibited by the human v6 peptide. Treatment with a corresponding rat v6 peptide (ctrl peptide, SEQ ID NO: 10 or 11) had no influence on receptor activation and signal transduction (FIG. 19A).
The contribution of CD44v6 to Met signaling in the human epithelial pancreatic cancer cells L3.6pl (derived from Colo 357), the cervix carcinoma cells HeLa and the colon cancer cells HT29 were analysed using the CD44v6 peptide (v6 14mer; v6 5mer tested as well, data not shown).

For experiment [3], the system named is L3.6pl cells. Briefly: Regression of already established metastases, L3.6pl orthotopic mouse model. The class given is in vivo. The following applies: nude mice, orthotopic L3.6pl, treatment from week 3 for three weeks; human v6 peptide or rat control peptide 20 μg i.p. The method, then: In order to examine the regression of metastases (either BSp73ASs6 or L3.6pl) were implanted as described above. Tumor growth was allowed for three weeks. At that time all animals had developed metastases in the control group. Animals were injected i.p. with 20 μg (L3.6pl orthotopic mouse model: human v6 peptide or rat control peptide) or i.v. with 200 μg (rat syngeneic model: rat v6 peptide or mouse control peptide) of peptides three times per week. Animals were killed 23 days after the start of the peptide treatment.
The specific binding of the CD44v6 peptides to specific areas of the lungs in the rat system and of the liver in the human model raises the question whether these peptides might have an effect on already established metastases. In the experiments described in FIGS. 17 and 19 the peptides were applied early after injection of the tumor cells and repressed completely the establishment of metastases. In order to measure the effect of the CD44v6 peptide on already established metastases, other experimental settings were used. BSp73ASs6 cells were injected subcutaneously into syngeneic rats and L3.6pl cells orthotopically into male nude mice and allowed to grow for 3 weeks. […]

Experiment [4] relates to L3.6pl cells. Briefly: Human orthotopic pancreatic cancer model, L3.6pl cells in nude mice, treatment from day 7. The class given is in vivo, mouse. The protocol: In the case of the human orthotopic model, L3.6pl pancreatic carcinoma cells (passage 24-26) were suspended in Hank's balanced salt solution (Invitrogen, Karlsruhe, Germany) after trypsinization. The cells were injected orthotopically in the pancreas of male nude mice as described (Bruns C J et al. (1999) Neoplasia 1(1):50-62). Two groups of 15 mice each were injected i.p. 7 days later with either the human v6 peptide respectively rat control peptide (20 μg). For all experiments described and depicted herein either the rat 14mer control peptide or the human 14mer peptide were used. All experiments were then repeated with the rat 5mer control peptide or the human 5mer peptide (N-R-W-H-E, SEQ ID NO: 2). […] The injection was repeated three times per week for 21 days. Two days after the last treatment the animals were killed.
7 μm thick paraffin sections were deparaffinized and rehydrated. For P-Met staining antigen unmasking was achieved by boiling the slides in 1 mM EDTA pH 8.0 followed by incubation for 15 minutes at a sub-boiling temperature, for CD31 staining the sections were treated with Proteinase K (8 μg/ml) for […] at 37° C. For immunofluorescence staining of P-Met, unspecific binding was blocked with 5% goat serum (DAKO, Glostrup, Denmark) (diluted in 1×PBS/0.3% Triton X-100) for 60 minutes. In the case of immunohistochemistry, endogenous peroxidases were at first blocked with 3% H2O2 in PBS followed by incubation with biotin blocking system (Dako, Glostrup, Denmark) and then unspecific binding was inhibited by incubation with 5% FCS in PBS was used for blocking. The sections were incubated with the P-Met antibody (D26, dilution 1:50 in 1×PBS/1% BSA/0.3% Triton X-100), Met antibody (C-28, dilution 1:50), GFP antibody (sc-101525, dilution 1:50) or CD31 antibody (5 μg/ml) over night or VFF18 (5 μg/ml) o/n at 4° C. After washing in PBS the sections were incubated with Alexa Fluor R 546 goat anti-rabbit (in case of immunofluorescence P-Met and Met staining, dilution 1:500) or a biotinylated secondary antibody (for immunohistochemical stainings rabbit anti-rat antibody for VFF18 and CD31, goat anti-rabbit for P-Met, cleaved Caspase-3 and cleaved Caspase-8 and rabbit anti-mouse for GFP, dilution 1:500) for 45 minutes. For DAB staining the sections were treated with a streptavidin-peroxidase conjugate (Dako, Glostrup, Denmark) and developed with DAB (3,3′-diaminobenzidine) substrate system (3,3′-diaminobenzidine; Biozol, Eching, Germany) For immunofluorescence DAPI was used for nuclear staining.
To test the effect of the peptide on tumor growth and metastasis formation the L3.6pl cells were orthotopically injected into the pancreas of immunosuppressed mice (NCI-nu). […] The primary tumor expresses a high amount of CD44v6 (FIG. 19B). […] Indeed, human HGF in a concentration of 3375 pg/ml was detected in the supernatant (see Material and Methods) after 5 days of culture (data not shown).

T1 sequence (P16070 21-742): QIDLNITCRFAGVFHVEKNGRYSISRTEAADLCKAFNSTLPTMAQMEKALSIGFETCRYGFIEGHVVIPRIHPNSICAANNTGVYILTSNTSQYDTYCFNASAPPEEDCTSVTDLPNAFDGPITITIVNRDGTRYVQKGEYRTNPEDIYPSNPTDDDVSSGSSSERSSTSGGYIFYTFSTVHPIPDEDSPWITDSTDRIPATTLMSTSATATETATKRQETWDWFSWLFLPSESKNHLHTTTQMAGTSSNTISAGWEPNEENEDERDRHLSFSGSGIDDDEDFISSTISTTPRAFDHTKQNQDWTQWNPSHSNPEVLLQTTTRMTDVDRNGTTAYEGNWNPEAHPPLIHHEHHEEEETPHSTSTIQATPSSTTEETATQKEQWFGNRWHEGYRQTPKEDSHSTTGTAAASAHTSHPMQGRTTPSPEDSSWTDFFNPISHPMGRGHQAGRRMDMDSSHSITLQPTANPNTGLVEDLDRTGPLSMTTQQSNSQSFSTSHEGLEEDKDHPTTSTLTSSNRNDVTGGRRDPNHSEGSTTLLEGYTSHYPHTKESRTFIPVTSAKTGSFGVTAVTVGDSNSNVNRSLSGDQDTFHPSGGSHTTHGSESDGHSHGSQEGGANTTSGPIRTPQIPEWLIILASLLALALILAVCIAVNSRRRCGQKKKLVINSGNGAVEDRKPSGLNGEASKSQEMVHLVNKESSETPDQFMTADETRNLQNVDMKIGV

As for “NRWHE [SEQ ID NO: 2, human CD44v6 5mer peptide]”, in the experiment with CD44v6 [1] (MCF7, serum-starved, EGF 20 ng/ml), the “EGF-induced activation of the ErbB receptors (Erk phosphorylation)” value is “blocking of Erk phosphorylation”. Further, the “Erk phosphorylation upon TGFα induction” value with CD44v6 [1] (MCF7, TGFα 20 ng/ml) was “not upon TGFα induction”. Besides, in the experiment on CD44v6 [2], the “HGF-induced phosphorylation/activation of ERK” value is reported as “inhibited” and the “HGF-induced phosphorylation/activation of Met” value is “inhibited”. Moreover, the “Presence of metastases (liver) after treatment of established metastases” value in the experiment on L3.6pl cells [3] is reported as “eliminate already established metastases”. Further, in the experiment on L3.6pl cells [4] (L3.6pl orthotopic model, 5mer instead of 14mer), the “Outcome of all experiments repeated with 5mer peptides, compared with 14mer” value is “same results as for the 14mer peptides”. Moreover, the “Metastasis formation (liver)” value with L3.6pl cells [4] (nude mice, orthotopic L3.6pl, 20 μg i.p. three times per week) was “capable of inhibiting metastasis”.
